Measured values taken from PubChem BioAssay AID2060892 (Molecular Pharmacology Branch, DTP, NCI, 2025).

Test system: HOP-62 complex spheroids with HUVEC/MSC, viability
Experiment: Anticancer human tumor HOP-62 cell line growth inhibition [RAS];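 note: spheroids exposed to agents for seven days before readout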;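 for viability, T/C: 100% = DMSO vehicle control viability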
Settings: for IC50: curve of first compound; for viability, T/C: stronger effect = lower value
Outline: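 Agents were tested in combination matrices in half-log decrements from a top concentration at or near clinical Cmax (10 microM if undetermined). Targets were multi-cell spheroids of tumour lines plus HUVEC and MSC stromal cells.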

Structure (SMILES): CCc1c2c(nc3ccc(O)cc13)-c1cc3c(c(=O)n1C2)COC(=O)[C@]3(O)CC + C=CC(=O)N1CCN(c2nc(OCC3CCCN3C)nc3c(F)c(-c4nc(N)cc(C)c4C(F)(F)F)c(Cl)cc23)C(C)C1
- IC50 (second compound 0.00316 µM): < 0.000949 µM
- IC50 (second compound 0.01 µM): < 0.000949 µM
- IC50 (second compound 0.0316 µM): < 0.000949 µM
- IC50 (second compound 0.1 µM): < 0.000949 µM
- IC50 (second compound 0.316 µM): < 0.000949 µM
- IC50 (second compound 1 µM): < 0.000949 µM
- viability, T/C (second compound 0.00316 µM, first compound 0.000949 µM): 46.5%
- viability, T/C (second compound 0.00316 µM, first compound 0.003 µM): 11.8%
- viability, T/C (second compound 0.00316 µM, first compound 0.00949 µM): 6.88%
- viability, T/C (second compound 0.00316 µM, first compound 0.03 µM): 3.96%
- viability, T/C (second compound 0.00316 µM, first compound 0.0949 µM): 2.91%
- viability, T/C (second compound 0.00316 µM, first compound 0.3 µM): 4.33%
- viability, T/C (second compound 0.01 µM, first compound 0.000949 µM): 47.3%
- viability, T/C (second compound 0.01 µM, first compound 0.003 µM): 11.6%
- viability, T/C (second compound 0.01 µM, first compound 0.00949 µM): 6.73%
- viability, T/C (second compound 0.01 µM, first compound 0.03 µM): 4.31%
- viability, T/C (second compound 0.01 µM, first compound 0.0949 µM): 3.65%
- viability, T/C (second compound 0.01 µM, first compound 0.3 µM): 2.46%
- viability, T/C (second compound 0.0316 µM, first compound 0.000949 µM): 42.5%
- viability, T/C (second compound 0.0316 µM, first compound 0.003 µM): 9.52%
- viability, T/C (second compound 0.0316 µM, first compound 0.00949 µM): 5.4%
- viability, T/C (second compound 0.0316 µM, first compound 0.03 µM): 3.77%
- viability, T/C (second compound 0.0316 µM, first compound 0.0949 µM): 2.66%
- viability, T/C (second compound 0.0316 µM, first compound 0.3 µM): 2.57%
- viability, T/C (second compound 0.1 µM, first compound 0.000949 µM): 47.7%
- viability, T/C (second compound 0.1 µM, first compound 0.003 µM): 10.1%
- viability, T/C (second compound 0.1 µM, first compound 0.00949 µM): 6.42%
- viability, T/C (second compound 0.1 µM, first compound 0.03 µM): 3.2%
- viability, T/C (second compound 0.1 µM, first compound 0.0949 µM): 3.67%
- viability, T/C (second compound 0.1 µM, first compound 0.3 µM): 2.48%
- viability, T/C (second compound 0.316 µM, first compound 0.000949 µM): 40.5%
- viability, T/C (second compound 0.316 µM, first compound 0.003 µM): 10.3%
- viability, T/C (second compound 0.316 µM, first compound 0.00949 µM): 8.01%
- viability, T/C (second compound 0.316 µM, first compound 0.03 µM): 5.51%
- viability, T/C (second compound 0.316 µM, first compound 0.0949 µM): 4.05%
- viability, T/C (second compound 0.316 µM, first compound 0.3 µM): 2.72%
- viability, T/C (second compound 1 µM, first compound 0.000949 µM): 43.2%
- viability, T/C (second compound 1 µM, first compound 0.003 µM): 12.4%
- viability, T/C (second compound 1 µM, first compound 0.00949 µM): 6.37%
- viability, T/C (second compound 1 µM, first compound 0.03 µM): 4.48%
- viability, T/C (second compound 1 µM, first compound 0.0949 µM): 2.92%
- viability, T/C (second compound 1 µM, first compound 0.3 µM): 2.71%

Structure (SMILES): C[C@@H](NC(=O)c1ncnc(N)c1Cl)c1ncc(C(=O)Nc2cc(C(F)(F)F)c(Cl)cn2)s1 + C#Cc1c(F)ccc2cc(O)cc(-c3ncc4c(N5CC6CCC(C5)N6)nc(OCC56CCCN5CC(F)C6)nc4c3F)c12
- IC50 (second compound 0.0316 µM): > 10 µM
- IC50 (second compound 0.1 µM): > 10 µM
- IC50 (second compound 0.316 µM): > 10 µM
- IC50 (second compound 1 µM): > 10 µM
- IC50 (second compound 3.16 µM): > 10 µM
- IC50 (second compound 10 µM): 0.457 µM
- viability, T/C (second compound 0.0316 µM, first compound 0.0316 µM): 109%
- viability, T/C (second compound 0.0316 µM, first compound 0.1 µM): 105%
- viability, T/C (second compound 0.0316 µM, first compound 0.316 µM): 101%
- viability, T/C (second compound 0.0316 µM, first compound 1 µM): 102%
- viability, T/C (second compound 0.0316 µM, first compound 3.16 µM): 92.6%
- viability, T/C (second compound 0.0316 µM, first compound 10 µM): 78.6%
- viability, T/C (second compound 0.1 µM, first compound 0.0316 µM): 110%
- viability, T/C (second compound 0.1 µM, first compound 0.1 µM): 113%
- viability, T/C (second compound 0.1 µM, first compound 0.316 µM): 105%
- viability, T/C (second compound 0.1 µM, first compound 1 µM): 102%
- viability, T/C (second compound 0.1 µM, first compound 3.16 µM): 96.8%
- viability, T/C (second compound 0.1 µM, first compound 10 µM): 75.4%
- viability, T/C (second compound 0.316 µM, first compound 0.0316 µM): 114%
- viability, T/C (second compound 0.316 µM, first compound 0.1 µM): 101%
- viability, T/C (second compound 0.316 µM, first compound 0.316 µM): 96.6%
- viability, T/C (second compound 0.316 µM, first compound 1 µM): 104%
- viability, T/C (second compound 0.316 µM, first compound 3.16 µM): 97.6%
- viability, T/C (second compound 0.316 µM, first compound 10 µM): 62.8%
- viability, T/C (second compound 1 µM, first compound 0.0316 µM): 117%
- viability, T/C (second compound 1 µM, first compound 0.1 µM): 97.9%
- viability, T/C (second compound 1 µM, first compound 0.316 µM): 91.1%
- viability, T/C (second compound 1 µM, first compound 1 µM): 94.1%
- viability, T/C (second compound 1 µM, first compound 3.16 µM): 88.6%
- viability, T/C (second compound 1 µM, first compound 10 µM): 65.4%
- viability, T/C (second compound 3.16 µM, first compound 0.0316 µM): 83.2%
- viability, T/C (second compound 3.16 µM, first compound 0.1 µM): 78.7%
- viability, T/C (second compound 3.16 µM, first compound 0.316 µM): 77.1%
- viability, T/C (second compound 3.16 µM, first compound 1 µM): 77.4%
- viability, T/C (second compound 3.16 µM, first compound 3.16 µM): 73.4%
- viability, T/C (second compound 3.16 µM, first compound 10 µM): 58.4%
- viability, T/C (second compound 10 µM, first compound 0.0316 µM): 51.9%
- viability, T/C (second compound 10 µM, first compound 0.1 µM): 46.8%
- viability, T/C (second compound 10 µM, first compound 0.316 µM): 54.1%
- viability, T/C (second compound 10 µM, first compound 1 µM): 49.9%
- viability, T/C (second compound 10 µM, first compound 3.16 µM): 43.4%
- viability, T/C (second compound 10 µM, first compound 10 µM): 33.7%

Structure (SMILES): CC(C)n1nc(-c2ccc3oc(N)nc3c2)c2c(N)ncnc21 + CCn1c(-c2cccnc2C(C)OC)c2c3cc(ccc31)N1CCOC(CC(NC(=O)C(C(C)C)N(C)C(=O)C3(F)CCN(C(=O)C#CC(C)(C)N(C)C)CC3)C(=O)N3CCCC(N3)C(=O)OCC(C)(C)C2)C1
- IC50 (second compound 0.000949 µM): 0.0316 µM
- IC50 (second compound 0.003 µM): 0.0118 µM
- IC50 (second compound 0.00949 µM): 0.0109 µM
- IC50 (second compound 0.03 µM): 0.0173 µM
- IC50 (second compound 0.0949 µM): 0.007 µM
- IC50 (second compound 0.3 µM): 0.00672 µM
- viability, T/C (second compound 0.000949 µM, first compound 0.000316 µM): 118%
- viability, T/C (second compound 0.000949 µM, first compound 0.001 µM): 107%
- viability, T/C (second compound 0.000949 µM, first compound 0.00316 µM): 64.2%
- viability, T/C (second compound 0.000949 µM, first compound 0.01 µM): 74.7%
- viability, T/C (second compound 0.000949 µM, first compound 0.0316 µM): 55.6%
- viability, T/C (second compound 0.000949 µM, first compound 0.1 µM): 30.6%
- viability, T/C (second compound 0.003 µM, first compound 0.000316 µM): 105%
- viability, T/C (second compound 0.003 µM, first compound 0.001 µM): 81%
- viability, T/C (second compound 0.003 µM, first compound 0.00316 µM): 58.8%
- viability, T/C (second compound 0.003 µM, first compound 0.01 µM): 56.3%
- viability, T/C (second compound 0.003 µM, first compound 0.0316 µM): 45.7%
- viability, T/C (second compound 0.003 µM, first compound 0.1 µM): 25.4%
- viability, T/C (second compound 0.00949 µM, first compound 0.000316 µM): 94.9%
- viability, T/C (second compound 0.00949 µM, first compound 0.001 µM): 64%
- viability, T/C (second compound 0.00949 µM, first compound 0.00316 µM): 65.3%
- viability, T/C (second compound 0.00949 µM, first compound 0.01 µM): 53.4%
- viability, T/C (second compound 0.00949 µM, first compound 0.0316 µM): 44.5%
- viability, T/C (second compound 0.00949 µM, first compound 0.1 µM): 26.1%
- viability, T/C (second compound 0.03 µM, first compound 0.000316 µM): 80.7%
- viability, T/C (second compound 0.03 µM, first compound 0.001 µM): 75.6%
- viability, T/C (second compound 0.03 µM, first compound 0.00316 µM): 71.1%
- viability, T/C (second compound 0.03 µM, first compound 0.01 µM): 67.7%
- viability, T/C (second compound 0.03 µM, first compound 0.0316 µM): 30.1%
- viability, T/C (second compound 0.03 µM, first compound 0.1 µM): 30.6%
- viability, T/C (second compound 0.0949 µM, first compound 0.000316 µM): 85.7%
- viability, T/C (second compound 0.0949 µM, first compound 0.001 µM): 67.8%
- viability, T/C (second compound 0.0949 µM, first compound 0.00316 µM): 61%
- viability, T/C (second compound 0.0949 µM, first compound 0.01 µM): 52.2%
- viability, T/C (second compound 0.0949 µM, first compound 0.0316 µM): 25.6%
- viability, T/C (second compound 0.0949 µM, first compound 0.1 µM): 30%
- viability, T/C (second compound 0.3 µM, first compound 0.000316 µM): 75.7%
- viability, T/C (second compound 0.3 µM, first compound 0.001 µM): 77.8%
- viability, T/C (second compound 0.3 µM, first compound 0.00316 µM): 59.8%
- viability, T/C (second compound 0.3 µM, first compound 0.01 µM): 45.3%
- viability, T/C (second compound 0.3 µM, first compound 0.0316 µM): 32.2%
- viability, T/C (second compound 0.3 µM, first compound 0.1 µM): 30.6%
